Results: US12714706B2, “Methods of treating small cell lung cancer with lurbinectedin formulations” (PHARMA MAR, S.A., priority 2019, dated 2026)
Values after ≈ are worked out from the molar mass of the structure shown. Like-named read-outs stand apart in the source and are kept apart here.

Experiments:
[1] = lurbinectedin single agent 3.2 mg/m2 (ref); n=329; mean (SD); cited from earlier work
[2] = Lurbinectedin plus irinotecan trial: pharmacokinetics of lurbinectedin, irinotecan and SN-38; conditions: combination: lurbinectedin 1.0-2.4 mg/m2 + irinotecan 75 mg/m2; n=39; mean (SD)
[3] = physchem
[4] = test system: SCLC patients; experiment: Phase 2 trial of lurbinectedin monotherapy in SCLC: safety evaluation (NCI-CTCAE v4); format: in vivo, human
Description: Patients were evaluated for safety if they had received any partial or complete infusion of lurbinectedin. All adverse events were graded according to the National Cancer Institute-Common Toxicity Criteria for Adverse Events (NCI-CTCAE, v4). The safety profile of patients was monitored throughout the treatment and up to 30 days after the last lurbinectedin infusion (end of treatment), or until the patient started a new anti-tumor therapy or until the date of death, whichever occurred first. Treatment delays, dose reduction requirements, transfusions, and reason for treatment discontinuation was monitored throughout the study. Any treatment-related adverse events were followed until recovery to at least grade 1 or stabilization of symptoms or until the start of a new anti-tumor therapy, whichever occurred first.

[5] = test system: patients; conditions: previous analysis, dose based on body surface area; cited from earlier work
[6] = Sodium acetate pH 3, 25°C/60% RH
[7] = Sodium acetate pH 3, 14 d 25°C/60% RH
[8] = Sodium acetate pH 4, 25°C/60% RH
[9] = Sodium acetate pH 4, 14 d 25°C/60% RH
[10] = Sodium acetate pH 5, 25°C/60% RH
[11] = Sodium acetate pH 5, 14 d 25°C/60% RH
[12] = Sodium citrate pH 3, 25°C/60% RH
[13] = Sodium citrate pH 3, 14 d 25°C/60% RH
[14] = Sodium citrate pH 4, 25°C/60% RH
[15] = Sodium citrate pH 4, 14 d 25°C/60% RH
[16] = Sodium citrate pH 5, 25°C/60% RH
[17] = Sodium citrate pH 5, 14 d 25°C/60% RH
[18] = Sodium lactate pH 3, 25°C/60% RH
[19] = Sodium lactate pH 3, 14 d 25°C/60% RH
[20] = Sodium lactate pH 4, 25°C/60% RH
[21] = Sodium lactate pH 4, 14 d 25°C/60% RH
[22] = Sodium lactate pH 5, 25°C/60% RH
[23] = Sodium lactate pH 5, 14 d 25°C/60% RH
[24] = Sodium succinate pH 3, 25°C/60% RH
[25] = Sodium succinate pH 3, 14 d 25°C/60% RH
[26] = Sodium succinate pH 4, 25°C/60% RH
[27] = Sodium succinate pH 4, 14 d 25°C/60% RH
[28] = Sodium succinate pH 5, 25°C/60% RH
[29] = Sodium succinate pH 5, 14 d 25°C/60% RH
[30] = 105 SCLC patients, 3.2 mg/m^2 q3wk
[31] = biochemical abnormality regardless of relation to study drug, patients with laboratory data, NCI-CTCAE v4.0, SCLC
[32] = haematological abnormality regardless of relation to study drug, NCI-CTCAE v4.0, 105 treated SCLC patients
[33] = treatment-related adverse event, NCI-CTCAE v4.0, 105 treated SCLC patients

SMILES: COc1ccc2[nH]c3c(c2c1)CCN[C@]31CS[C@@H]2c3c(OC(C)=O)c(C)c4c(c3[C@H](COC1=O)N1[C@@H]2[C@H]2c3c(cc(C)c(OC)c3O)C[C@@H]([C@@H]1O)N2C)OCO4 [lurbinectedin, Lurbinectedin]
- Concentration t = 0 h (Sodium acetate pH 3): 950 µg/mL
- Purity t = 0 h (Sodium acetate pH 3): 99.2%
- Concentration t = 14 d [6]: 880 µg/mL
- Purity t = 14 d [6]: 98.0%
- Concentration decrease [7]: 6.8%
- Degradation [7]: 1.2%
- Concentration t = 0 h (Sodium acetate pH 4): 940 µg/mL
- Purity t = 0 h (Sodium acetate pH 4): 99.2%
- Concentration t = 14 d [8]: 890 µg/mL
- Purity t = 14 d [8]: 98.0%
- Concentration decrease [9]: 5.7%
- Degradation [9]: 1.2%
- Concentration t = 0 h (Sodium acetate pH 5): 30 µg/mL
- Purity t = 0 h (Sodium acetate pH 5): 95.4%
- Concentration t = 14 d [10]: 30 µg/mL
- Purity t = 14 d [10]: 93.7%
- Concentration decrease [11]: 8.2%
- Degradation [11]: 1.7%
- Concentration t = 0 h (Sodium citrate pH 3): 940 µg/mL
- Purity t = 0 h (Sodium citrate pH 3): 99.4%
- Concentration t = 14 d [12]: 920 µg/mL
- Purity t = 14 d [12]: 97.9%
- Concentration decrease [13]: 1.2%
- Degradation [13]: 1.6%
- Concentration t = 0 h (Sodium citrate pH 4): 930 µg/mL
- Purity t = 0 h (Sodium citrate pH 4): 99.4%
- Concentration t = 14 d [14]: 880 µg/mL
- Purity t = 14 d [14]: 96.2%
- Concentration decrease [15]: 6.0%
- Degradation [15]: 3.2%
- Concentration t = 0 h (Sodium citrate pH 5): 500 µg/mL
- Purity t = 0 h (Sodium citrate pH 5): 99.3%
- Concentration t = 14 d [16]: 110 µg/mL
- Purity t = 14 d [16]: 95.0%
- Concentration decrease [17]: 78.5%
- Degradation [17]: 4.3%
- Concentration t = 0 h (Sodium lactate pH 3): 940 µg/mL
- Purity t = 0 h (Sodium lactate pH 3): 99.3%
- Concentration t = 14 d [18]: 930 µg/mL
- Purity t = 14 d [18]: 98.6%
- Concentration decrease [19]: 0.9%
- Degradation [19]: 0.7%
- Concentration t = 0 h (Sodium lactate pH 4): 900 µg/mL
- Purity t = 0 h (Sodium lactate pH 4): 99.3%
- Concentration t = 14 d [20]: 870 µg/mL
- Purity t = 14 d [20]: 97.8%
- Concentration decrease [21]: 3.0%
- Degradation [21]: 1.5%
- Concentration t = 0 h (Sodium lactate pH 5): 30 µg/mL
- Purity t = 0 h (Sodium lactate pH 5): 96.5%
- Concentration t = 14 d [22]: 30 µg/mL
- Purity t = 14 d [22]: 93.9%
- Concentration decrease [23]: 6.9%
- Degradation [23]: 2.6%
- Concentration t = 0 h (Sodium succinate pH 3): 960 µg/mL
- Purity t = 0 h (Sodium succinate pH 3): 99.3%
- Concentration t = 14 d [24]: 930 µg/mL
- Purity t = 14 d [24]: 97.7%
- Concentration decrease [25]: 3.2%
- Degradation [25]: 1.5%
- Concentration t = 0 h (Sodium succinate pH 4): 970 µg/mL
- Purity t = 0 h (Sodium succinate pH 4): 99.2%
- Concentration t = 14 d [26]: 890 µg/mL
- Purity t = 14 d [26]: 96.8%
- Concentration decrease [27]: 7.6%
- Degradation [27]: 2.4%
- Concentration t = 0 h (Sodium succinate pH 5): 40 µg/mL
- Purity t = 0 h (Sodium succinate pH 5): 95.9%
- Concentration t = 14 d [28]: 30 µg/mL
- Purity t = 14 d [28]: 94.2%
- Concentration decrease [29]: 8.1%
- Degradation [29]: 1.8%
- CL [1]: 12.4 (7.6) L/h
- Cmax [1]: 127.5 (100.2) ug/L
- HL [1]: 42.6 (38.4) h
- Vz [1]: 664.7 (460.3) L
- HL [2]: 44.2 (22.4) h
- solubility ([3]; sodium acetate buffer, pH 3, aqueous buffer): 950 µg/mL (≈ 1210 µM)
- solubility ([3]; sodium acetate buffer, pH 4, aqueous buffer): 940 µg/mL (≈ 1200 µM)
- solubility ([3]; sodium acetate buffer, pH 5, aqueous buffer): 30 µg/mL (≈ 38.2 µM)
- solubility ([3]; sodium citrate buffer, pH 3, aqueous buffer): 940 µg/mL (≈ 1200 µM)
- solubility ([3]; sodium citrate buffer, pH 4, aqueous buffer): 930 µg/mL (≈ 1180 µM)
- solubility ([3]; sodium citrate buffer, pH 5, aqueous buffer): 500 µg/mL (≈ 637 µM)
- solubility ([3]; sodium lactate buffer, pH 3, aqueous buffer): 940 µg/mL (≈ 1200 µM)
- solubility ([3]; sodium lactate buffer, pH 4, aqueous buffer): 900 µg/mL (≈ 1150 µM)
- solubility ([3]; sodium lactate buffer, pH 5, aqueous buffer): 30 µg/mL (≈ 38.2 µM)
- solubility ([3]; sodium succinate buffer, pH 3, aqueous buffer): 960 µg/mL (≈ 1220 µM)
- solubility ([3]; sodium succinate buffer, pH 4, aqueous buffer): 970 µg/mL (≈ 1240 µM)
- solubility ([3]; sodium succinate buffer, pH 5, aqueous buffer): 40 µg/mL (≈ 51 µM)
- Patients with dose delays caused by neutropenia ([4]; 105 SCLC patients): 12%
- Patients with dose reductions caused by neutropenia ([4]; 105 SCLC patients): 16%
- Patients with dose administration delayed because of treatment-related adverse events [4, 30]: 22%
- Patients with dose reduced because of treatment-related adverse events [4, 30]: 26%
- Discontinuation because of treatment-related adverse events ([4]; 105 treated patients): 2%
- Drug-induced liver injury ([4]; 105 treated patients): no cases
- Grade 3-4 anemia ([4]; 105 treated patients): 9%
- Grade 3-4 febrile neutropenia ([4]; 105 treated patients): 5%
- Grade 3-4 leukopenia ([4]; 105 treated patients): 29%
- Grade 3-4 neutropenia ([4]; 105 treated patients): 46%
- Grade 3-4 thrombocytopenia ([4]; 105 treated patients): 7%
- Grade 3 pneumonia ([4]; 105 treated patients): 2%
- Patients who received G-CSF secondary prophylaxis or therapy for neutropenia ([4]; 105 treated patients): 22%
- Serious treatment-related adverse events ([4]; 105 treated patients): 10%
- Serious treatment-related febrile neutropenia ([4]; 105 treated patients): 5%
- Serious treatment-related neutropenia ([4]; 105 treated patients): 5%
- Treatment-related deaths ([4]; 105 treated patients): No treatment-related deaths
- Alanine aminotransferase, Grade 4 [4, 31]: 0 n (%) of patients
- Alkaline phosphatase, Grade 4 [4, 31]: 0 n (%) of patients
- Aspartate aminotransferase, Grade 4 [4, 31]: 0 n (%) of patients
- Creatinine, Grade 3 [4, 31]: 0 n (%) of patients
- Creatinine, Grade 4 [4, 31]: 0 n (%) of patients
- Anaemia, Grade 1-2 [4, 32]: 91 (87%) n (%) of patients
- Anaemia, Grade 3 [4, 32]: 9 (9%) n (%) of patients
- Anaemia, Grade 4 [4, 32]: 0 n (%) of patients
- Leucopenia, Grade 1-2 [4, 32]: 53 (50%) n (%) of patients
- Leucopenia, Grade 3 [4, 32]: 20 (19%) n (%) of patients
- Leucopenia, Grade 4 [4, 32]: 10 (10%) n (%) of patients
- Neutropenia, Grade 1-2 [4, 32]: 27 (26%) n (%) of patients
- Neutropenia, Grade 3 [4, 32]: 22 (21%) n (%) of patients
- Neutropenia, Grade 4 [4, 32]: 26 (25%) n (%) of patients
- Thrombocytopenia, Grade 1-2 [4, 32]: 39 (37%) n (%) of patients
- Thrombocytopenia, Grade 3 [4, 32]: 3 (3%) n (%) of patients
- Thrombocytopenia, Grade 4 [4, 32]: 4 (4%) n (%) of patients
- Decreased appetite, Grade 1-2 [4, 33]: 22 (21%) n (%) of patients
- Decreased appetite, Grade 3 [4, 33]: 0 n (%) of patients
- Decreased appetite, Grade 4 [4, 33]: 0 n (%) of patients
- Diarrhoea, Grade 1-2 [4, 33]: 13 (14%) n (%) of patients
- Diarrhoea, Grade 3 [4, 33]: 1 (1%) n (%) of patients
- Diarrhoea, Grade 4 [4, 33]: 0 n (%) of patients
- Fatigue, Grade 1-2 [4, 33]: 54 (51%) n (%) of patients
- Fatigue, Grade 3 [4, 33]: 7 (7%) n (%) of patients
- Fatigue, Grade 4 [4, 33]: 0 n (%) of patients
- Febrile neutropenia, Grade 1-2 [4, 33]: 0 n (%) of patients
- Febrile neutropenia, Grade 3 [4, 33]: 2 (2%) n (%) of patients
- Febrile neutropenia, Grade 4 [4, 33]: 3 (3%) n (%) of patients
- Nausea, Grade 1-2 [4, 33]: 34 (32%) n (%) of patients
- Nausea, Grade 3 [4, 33]: 0 n (%) of patients
- Nausea, Grade 4 [4, 33]: 0 n (%) of patients
- Pneumonia, Grade 1-2 [4, 33]: 0 n (%) of patients
- Pneumonia, Grade 3 [4, 33]: 2 (2%) n (%) of patients
- Pneumonia, Grade 4 [4, 33]: 0 n (%) of patients
- Skin ulcer, Grade 1-2 [4, 33]: 0 n (%) of patients
- Skin ulcer, Grade 3 [4, 33]: 1 (1%) n (%) of patients
- Skin ulcer, Grade 4 [4, 33]: 0 n (%) of patients
- Vomiting, Grade 1-2 [4, 33]: 19 (18%) n (%) of patients
- Vomiting, Grade 3 [4, 33]: 0 n (%) of patients
- Vomiting, Grade 4 [4, 33]: 0 n (%) of patients
- Incidence of febrile neutropenia [5]: lower than 10%
